{
  "source": "patent US20230286919A1",
  "about": "“ISOQUINOLINE DERIVATIVES FOR USE IN THERAPY” (Vestlandets Innovasjonsselskap AS, priority 2020, published 2023)",
  "key": {"[1]": {"system": "STAT3", "assay": "DARTS (drug affinity responsive target stability) assay in EPT3M1-STAT3 cell lysates", "format": "binding, human", "details": "200 μM", "experimental": "EPT3M1-STAT3 cells were lysed with cold M-PER buffer (Thermo Fisher Scientific, Pierce cat.78501) containing protease (Roche, Basel, Switzerland, cat. no. 11836153001) and phosphatase inhibitors (Pierce cat. no. 78420) and centrifugated (18,000×g for 10 min at 4° C.). Lysates were diluted to the same final volume and proteolysed in TNC buffer [50 mM Tris-HCl (pH 8.0), 50 mM NaCl, 10 mM CaCl2]. 200 μM 323-1 or 200 μM 323-2 or the same volume of DMSO were added and incubated for 1 hour at RT. Pronase solution (1.25 mg/ml, 1:100 stock solution) was diluted serially by mixing with 1×TNC buffer to create 1:300, 1:1000, 1:3000 and 1:10000 Pronase stock aliquots. Pronase was added into both DMSO and drug groups and incubated for 30 min at RT. Digestion was stopped by adding 4× loading buffer and heating to 90° C. for 10 min immediately prior to the Western blot assay according to Lomenick, et al. (Proc Natl Acad Sci USA, 2009; 106: 21984-9) and Lomenick wt al. (ACS Chem Biol. 2011; 6: 34-46). […]"}, "[2]": {"system": "DU145, PC3, EPT3M1-STAT3, and 22Rv1 cells", "assay": "In vitro clonogenic assay", "format": "cell-based, human", "details": "DU145, PC3, EPT3M1-STAT3, 22Rv1; 2 weeks", "experimental": "On the second day after seeding single cells, 323-1 and 323-2 were added at various concentrations, and cells were allowed to grow for 2 weeks to form colonies, then stained with 0.4% crystal violet (w/v)."}, "[3]": {"system": "LPS-induced IL-10 and IL-12p70 secretion in dendritic cells", "assay": "ELISA of secreted IL-10 and IL-12p70 in LPS-stimulated dendritic cells", "format": "cell-based, human", "details": "24 hrs", "experimental": "Low platelet peripheral blood mononuclear cells (PBMCs) were isolated from peripheral blood of healthy donors by Ficoll-Paque density centrifugation. Monocytes were derived from the above PBMCs by immunomagnetic selection with CD14+ microbeads (Pan Monocyte Isolation Kit from Miltenyi Biotec) and seeded at s 0.5×10^6 monocytes/ml in CellGro medium supplemented with GM-CSF (100 ng/ml) and IL-4 (20 ng/ml) to obtain immature dendritic cells (iDCs). Cytokines were replenished after 72 hrs and 24 hrs after incubation, iDCs were stimulated with 30 ng/ml LPS to obtain mature dendritic cells (moDCs). Test compounds were added into the wells 1 hr prior to the LPS treatment and co-incubated with LPS for another 23 hrs. Supernatant was collected for the detection of secreted IL-10 and IL-12p70 using a standard ELISA kit and cells were collected and markers identified by flow cytometry.\nThe effects of compounds 323-1 and 323-2 and various controls on the LPS-induced expression of cytokines IL-10, IL-12p70, co-stimulatory molecules and maturation markers (CD80, CD83, CD86, HLA-DR, CCR7) and programmed death-ligand 1 (PD-L1) and programmed death-ligand 2 (PD-L2) were determined."}, "[4]": {"system": "phosphorylated STAT3 (Tyr705) over pSTAT1 (S727)", "assay": "Western blot, pSTAT3 (Tyr705) and pSTAT1 (S727) in DU145 cells", "format": "cell-based, human", "details": "24 hrs"}, "[5]": {"system": "PC3, 22Rv1, LNCaP, EPT3-M1-STAT3-GFP cells", "assay": "MTS cell proliferation assay", "format": "cell-based, human", "details": "FIGS. 1-4", "experimental": "PC3, 22Rv1, LNCaP, EPT3-M1-STAT3 cells were seeded in 96-well plates for 24 hrs followed by treatment with different doses of 323-1 or 323-2. MTS assay was done after 3 days by adding 10 μl/well CellTiter 96@ AQueous One Solution Reagent (Promega, Madison, Wis., USA) for 4 hrs and the absorbance at 490 nm recorded using a Biotek machine.\nTo obtain the results shown in FIGS. 1-4, different cell lines were treated with indicated doses of compounds 323-1 and 323-2 for 72 hrs. All data are represented as the average±s.e.m (n=3). Significance was verified by using unpaired two-tailed Student's t-test. *p s 0.05 The total synthesis of compounds 323-1 and 323-2 was conducted as previously reported by Zhang et al. (Journal of the American Chemical Society. 2017; 139: 5558-67). The chemical structures of compounds 323-1 and 323-2 were validated by ^1H NMR, ^13C NMR."}},
  "data": [
    {"smiles": "C[C@@H]1CCC(c2cc3c4c(cncc4c2)[C@@H](C)C3)=C1C=O", "note": "[323-2, (15S,2R)-Delavatine A]", "values": [
      {"measurement": "Digestion of non-target proteins STAT1, JAK2, Src, β-actin", "setting": "[1]", "value": "unchanged"},
      {"measurement": "Protection of STAT3 against pronase digestion", "setting": "[1]", "value": "protection of the target protein STAT3"},
      {"measurement": "Colony formation", "setting": "[2]", "value": "Concentration-dependent inhibition of colony formation"},
      {"measurement": "Secretion of IL-10 and IL-12p70", "setting": "[3]", "value": "significantly reduced"},
      {"measurement": "Expression of phosphorylated STAT3 at Tyr705 compared with S3I-201", "setting": "[4]", "value": "better effect than S3I-201"},
      {"measurement": "Selectivity, phosphorylated STAT3 (Tyr705) over pSTAT1 (S727)", "setting": "[4]", "value": "selective inhibitory effect"},
      {"measurement": "Inhibition of proliferation of tumor-initiating and other tumor cells", "setting": "[5]", "value": "efficiently inhibit the proliferation"}
    ]}
  ]
}
